From ChEMBL document CHEMBL1201862, “PubChem BioAssay data set” (2004)
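Results reflect a 48-hour exposure of cells in 96-well plates to compound at five concentrations. At the GI50, growth is halved.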 Active and inactive are the calls of the source. Cut-off read from the data, not from the text of the source: active = GI50 up to about 1.1 µM and inactive = higher.

Assays:
Test in all cases: NCI-60 cell line screen, 48 h
A498 = tested on: A498
BT-549 = tested on: BT-549
HCT-116 = tested on: HCT-116
HCT-15 = tested on: HCT-15
HOP-92 = tested on: HOP-92
IGROV-1 = tested on: IGROV-1
K562 = tested on: K562
KM12 = tested on: KM12
LOX IMVI = tested on: LOX IMVI
MCF7 = tested on: MCF7
MDA-MB-231 = tested on: MDA-MB-231
OVCAR-5 = tested on: OVCAR-5
PC-3 = tested on: PC-3
RXF 393 = tested on: RXF 393
SK-MEL-28 = tested on: SK-MEL-28
SNB-19 = tested on: SNB-19
SR = tested on: SR
T47D = tested on: T47D
UACC-62 = tested on: UACC-62
NCI-H226 = tested on: NCI-H226

SMILES | GI50 (A498) | GI50 (BT-549) | GI50 (HCT-116) | GI50 (HCT-15) [µM] | GI50 (HOP-92) | GI50 (IGROV-1) | GI50 (K562) | GI50 (KM12) | GI50 (LOX IMVI) | GI50 (MCF7) | GI50 (MDA-MB-231) | GI50 (OVCAR-5) | GI50 (PC-3) | GI50 (RXF 393) | GI50 (SK-MEL-28) | GI50 (SNB-19) | GI50 (SR) | GI50 (T47D) | GI50 (UACC-62) | GI50 (NCI-H226)
Cc1ccc(C(C)C)c(OCC(=O)N/N=C/c2c[nH]c3ccc(Br)cc23)c1 | 4.09 µM (inactive) | 4.99 µM (inactive) | 3.15 µM (inactive) | 2.1 | 12.3 µM (inactive) | 2 µM (inactive) | 2.38 µM (inactive) | 1.41 µM (inactive) | 3.69 µM (inactive) | 0.45 µM (active) | 3.17 µM (inactive) | 5.11 µM (inactive) | 0.625 µM (active) | 1.37 µM (inactive) | 8.93 µM (inactive) | 2.87 µM (inactive) | 0.698 µM (active) | 5.62 µM (inactive) | 2.29 µM (inactive) | –
CN1CCC/C1=C1\C(=O)c2cccn2C1=O | > 100 µM (inactive) | > 100 µM (inactive) | > 100 µM (inactive) | > 100 | – | > 100 µM (inactive) | > 100 µM (inactive) | > 100 µM (inactive) | > 100 µM (inactive) | > 100 µM (inactive) | > 100 µM (inactive) | > 100 µM (inactive) | > 100 µM (inactive) | > 100 µM (inactive) | > 100 µM (inactive) | > 100 µM (inactive) | > 100 µM (inactive) | > 100 µM (inactive) | > 100 µM (inactive) | > 100 µM (inactive)
N#Cc1c2ccc([N+](=O)[O-])cc2c(=O)n2c1[nH]c1ccc(C(F)(F)F)cc12 | 7.91 µM (inactive) | 25.2 µM (inactive) | 10.1 µM (inactive) | 16.1 | 12.9 µM (inactive) | 34.2 µM (inactive) | 12.5 µM (inactive) | 24.8 µM (inactive) | 6.56 µM (inactive) | 63.4 µM (inactive) | 22.2 µM (inactive) | 14.3 µM (inactive) | > 38.2 µM (inactive) | – | 24.2 µM (inactive) | 10.8 µM (inactive) | 4.07 µM (inactive) | 32.4 µM (inactive) | 42.7 µM (inactive) | 14.3 µM (inactive)
COC(=O)c1ccccc1OCc1cc(=O)oc2ccc(C)cc12 | > 100 µM (inactive) | 18.1 µM (inactive) | 43.1 µM (inactive) | > 100 | 24 µM (inactive) | 64.7 µM (inactive) | > 100 µM (inactive) | > 100 µM (inactive) | > 69.2 µM (inactive) | 21.4 µM (inactive) | 84.9 µM (inactive) | > 100 µM (inactive) | > 100 µM (inactive) | – | > 100 µM (inactive) | 14.7 µM (inactive) | > 100 µM (inactive) | 4.7 µM (inactive) | > 39.2 µM (inactive) | 90.4 µM (inactive)
CC(=O)OCC(OC(C)=O)C(OC(C)=O)C(/C=N\Nc1nc2ccccc2c(=O)[nH]1)=N\Nc1nc2ccccc2c(=O)[nH]1 (configuration not stated) | – | > 100 µM (inactive) | > 100 µM (inactive) | > 100 | > 100 µM (inactive) | > 100 µM (inactive) | > 100 µM (inactive) | 4.68 µM (inactive) | > 100 µM (inactive) | > 100 µM (inactive) | > 100 µM (inactive) | > 100 µM (inactive) | > 100 µM (inactive) | > 100 µM (inactive) | > 100 µM (inactive) | > 100 µM (inactive) | 63.8 µM (inactive) | 47 µM (inactive) | > 100 µM (inactive) | > 100 µM (inactive)
CN1CCN(Cc2nc3c(s2)CCc2sccc2-3)CC1 | 12.7 µM (inactive) | > 100 µM (inactive) | 62.5 µM (inactive) | > 100 | – | > 100 µM (inactive) | 89.3 µM (inactive) | > 100 µM (inactive) | – | 79.8 µM (inactive) | 52.2 µM (inactive) | > 100 µM (inactive) | 63.8 µM (inactive) | 75.5 µM (inactive) | 25.4 µM (inactive) | 74.8 µM (inactive) | 36.1 µM (inactive) | 41.6 µM (inactive) | 24.8 µM (inactive) | > 100 µM (inactive)
CN(C(=O)c1ccc2c(c1)sc1c(=O)n(C)c3ccccc3c12)c1ccccc1 | – | > 100 µM (inactive) | > 100 µM (inactive) | > 100 | > 100 µM (inactive) | > 100 µM (inactive) | > 100 µM (inactive) | > 100 µM (inactive) | > 100 µM (inactive) | > 100 µM (inactive) | > 100 µM (inactive) | > 100 µM (inactive) | > 100 µM (inactive) | > 100 µM (inactive) | > 100 µM (inactive) | > 100 µM (inactive) | > 100 µM (inactive) | > 100 µM (inactive) | > 100 µM (inactive) | > 100 µM (inactive)
CC(C)(C)OC(=O)NCC(c1c[nH]c2cc(Br)ccc12)c1c[nH]c2cc(Br)ccc12 | – | 16.1 µM (inactive) | 17 µM (inactive) | 15.1 | 14.9 µM (inactive) | 14.9 µM (inactive) | 40.1 µM (inactive) | 18.3 µM (inactive) | 17.5 µM (inactive) | 18.6 µM (inactive) | 18 µM (inactive) | 15.5 µM (inactive) | 17.3 µM (inactive) | 17.6 µM (inactive) | 29.2 µM (inactive) | 21.8 µM (inactive) | > 100 µM (inactive) | 17.6 µM (inactive) | 16 µM (inactive) | 15.4 µM (inactive)
C=C=C(C)C(=O)N(C(C)C)C(C)C | > 100 µM (inactive) | > 100 µM (inactive) | > 100 µM (inactive) | > 100 | > 100 µM (inactive) | > 100 µM (inactive) | > 100 µM (inactive) | – | > 100 µM (inactive) | > 100 µM (inactive) | > 100 µM (inactive) | > 100 µM (inactive) | > 100 µM (inactive) | – | > 100 µM (inactive) | > 100 µM (inactive) | > 100 µM (inactive) | > 100 µM (inactive) | > 100 µM (inactive) | > 100 µM (inactive)
CC1CCCc2c(-c3ccc(Cl)cc3)nc(N)c(C#N)c21 (configuration not stated) | 28.4 µM (inactive) | 20.2 µM (inactive) | 22.3 µM (inactive) | 31 | – | 19.6 µM (inactive) | 24 µM (inactive) | 20.2 µM (inactive) | 24.2 µM (inactive) | 29 µM (inactive) | > 100 µM (inactive) | 43 µM (inactive) | 21.6 µM (inactive) | 27.2 µM (inactive) | 34.2 µM (inactive) | 64.7 µM (inactive) | 9.84 µM (inactive) | 2.09 µM (inactive) | 18.9 µM (inactive) | 18.4 µM (inactive)
C[C@]12CC[C@H]3[C@@H](CCC4=C[C@@H](N5CCCC5)CC[C@@]43C)[C@@H]1C/C(=C\c1ccncc1)[C@@H]2O | – | 18.3 µM (inactive) | 7.91 µM (inactive) | 8.43 | 15.9 µM (inactive) | 20.6 µM (inactive) | 3.24 µM (inactive) | 9.57 µM (inactive) | 8.57 µM (inactive) | 12.8 µM (inactive) | 13.9 µM (inactive) | 18 µM (inactive) | 13.6 µM (inactive) | 5.16 µM (inactive) | 7.31 µM (inactive) | 14.5 µM (inactive) | 3.16 µM (inactive) | 16.4 µM (inactive) | 15.8 µM (inactive) | 15.6 µM (inactive)
